In paper PMC9292215 (Clinical Pharmacology and Therapeutics, 2021):
Marks after values point to notes of the source that are not given here.

Tests used:
[1] = Plasma pharmacokinetics of BIA 10-2474 and metabolites; assay type: in vivo, human; conditions: for Cmax / half-life / Tmax / AUC(0-inf) / concentration at 10 day / AUC(0-t) / AUC / clearance: human, plasma, oral; for AUC(0-t): AUC0–t; for AUC: AUC0–τ; for clearance: CL
[2] = Phase I SAD/FI/MAD study: adverse events; assay type: in vivo, human
[3] = 10 mg, 10 mg once daily, Day 10
[4] = 20 mg, 20 mg once daily, Day 10
[5] = MAD 50 mg, moderate, serious, participant with fatal outcome

Compound: CN(C(=O)n1cnc(-c2ccc[n+]([O-])c2)c1)C1CCCCC1 [BIA 10-2474, 3-(1-(cyclohexyl(methyl)carbamoyl)-1H-imidazol-4-yl)pyridine 1-oxide]
- Cmax ([1]; 5 mg, 5 mg once daily, Day 1): 76.2 ng/mL
- Cmax ([1]; 5 mg, 5 mg once daily, Day 10): 85.7 ng/mL
- half-life ([1]; 5 mg, t1/2, 5 mg once daily, Day 1): 6.4 h
- half-life ([1]; 5 mg, t1/2, 5 mg once daily, Day 10): 7.87 h
- half-life ([1]; 5 mg, t1/2, single dose 5 mg): 6.57 h
- Tmax ([1]; 5 mg, 5 mg once daily, Day 1): 2 h
- Tmax ([1]; 5 mg, 5 mg once daily, Day 10): 2 h
- AUC(0-inf) ([1]; 10 mg): 1610 ng·h/mL
- concentration at 10 day ([1]; 10 mg): 31.9 ng/mL
- AUC(0-t) ([1]; 10 mg, 10 mg once daily, Day 1): 1390 ng·h/mL
- AUC(0-t) ([1]; 10 mg, single dose 10 mg): 1440 ng·h/mL
- AUC ([1]; 10 mg, 10 mg once daily, Day 1): 1390 ng·h/mL
- AUC [1, 3]: 2200 ng·h/mL
- clearance ([1]; 10 mg, 10 mg once daily, Day 1): 116 mL/min
- clearance [1, 3]: 80.3 mL/min
- clearance ([1]; 10 mg, single dose 10 mg): 112 mL/min
- Cmax ([1]; 10 mg, 10 mg once daily, Day 1): 143 ng/mL
- Cmax [1, 3]: 190 ng/mL
- Cmax ([1]; 10 mg, single dose 10 mg): 146 ng/mL
- half-life ([1]; 10 mg, t1/2, 10 mg once daily, Day 1): 7.12 h
- half-life ([1]; 10 mg, t1/2, 10 mg once daily, Day 10): 9.09 h
- half-life ([1]; 10 mg, t1/2, single dose 10 mg): 7.01 h
- Tmax ([1]; 10 mg, 10 mg once daily, Day 1): 2 h
- Tmax [1, 3]: 2 h
- Tmax ([1]; 10 mg, single dose 10 mg): 3 h
- AUC(0-inf) ([1]; 20 mg): 4170 ng·h/mL
- concentration at 10 day ([1]; 20 mg): 69.2 ng/mL
- AUC(0-t) ([1]; 20 mg, 20 mg once daily, Day 1): 2980 ng·h/mL
- AUC(0-t) ([1]; 20 mg, single dose 20 mg): 4070 ng·h/mL
- AUC ([1]; 20 mg, 20 mg once daily, Day 1): 2980 ng·h/mL
- AUC [1, 4]: 4650 ng·h/mL
- clearance ([1]; 20 mg, 20 mg once daily, Day 1): 100 mL/min
- clearance [1, 4]: 72.2 mL/min
- clearance ([1]; 20 mg, single dose 20 mg): 81.2 mL/min
- Cmax ([1]; 20 mg, 20 mg once daily, Day 1): 290 ng/mL
- Cmax [1, 4]: 396 ng/mL
- Cmax ([1]; 20 mg, single dose 20 mg): 308 ng/mL
- half-life ([1]; 20 mg, t1/2, 20 mg once daily, Day 1): 7.74 h
- half-life ([1]; 20 mg, t1/2, 20 mg once daily, Day 10): 10.2 h
- half-life ([1]; 20 mg, t1/2, single dose 20 mg): 8.7 h
- Tmax ([1]; 20 mg, 20 mg once daily, Day 1): 1.5 h
- Tmax [1, 4]: 2 h
- Tmax ([1]; 20 mg, single dose 20 mg): 2 h
- AUC(0-t) ([1]; 50 mg, 50 mg once daily, Day 1): 7770 ng·h/mL
- AUC ([1]; 50 mg, 50 mg once daily, Day 1): 7770 ng·h/mL
- clearance ([1]; 50 mg, 50 mg once daily, Day 1): 94.7 mL/min
- Cmax ([1]; 50 mg, 50 mg once daily, Day 1): 667 ng/mL
- half-life ([1]; 50 mg, t1/2, 50 mg once daily, Day 1): 8.67 h
- Tmax ([1]; 50 mg, 50 mg once daily, Day 1): 2 h
- time to steady state ([1]; once-daily administration, visual inspection of Ctrough): 5 to 6 days
- V/F ([1]; single dose 1.25 mg): 87.8 (30.4) L
- V/F ([1]; single dose 2.5 mg): 79.0 (29.0) L
- V/F ([1]; single dose 5 mg): 64.6 (23.0) L
- V/F ([1]; single dose 10 mg): 66.9 (29.8) L
- V/F ([1]; single dose 20 mg): 61.3 (19.0) L
- V/F ([1]; single dose 40 mg): 73.2 (28.3) L
- V/F ([1]; single dose 100 mg): 57.0 (16.3) L
- decrease of exposure in the presence of food ([1]; single oral 40 mg): ~ 15%
- Any AE, n (%) ([2]; 2.5 mg once daily 10 days, N = 6): 1 (16.7%)
- Any AE, n (%) ([2]; 5 mg once daily 10 days, N = 6): 1 (16.7%)
- Any AE, n (%) ([2]; 10 mg once daily 10 days, N = 6): 3 (50%)
- duration of blurred vision ([2]; 10 mg/day, mild): < 2.5 h
- participants with blurred vision ([2]; 10 mg/day, two participants): 2.3%
- Any AE, n (%) ([2]; 20 mg once daily 10 days, N = 6): 4 (66.7%)
- Abdominal pain, No. events ([2]; MAD 50 mg): 1
- Asthenia, No. events ([2]; MAD 50 mg): 1
- Blurred vision, No. events ([2]; MAD 50 mg): 1
- Diarrhea, No. events ([2]; MAD 50 mg): 2
- Dizziness, No. events ([2]; MAD 50 mg): 2
- Nausea, No. events ([2]; MAD 50 mg): 1
- Headache, No. events ([2]; MAD 50 mg, 3 moderate): 2 + 3^#
- Hot Flush, No. events ([2]; MAD 50 mg, moderate): 1^#
- Soft feces, No. events ([2]; MAD 50 mg, moderate): 1^#
- Diplopia, No. events ([2]; MAD 50 mg, moderate, serious): 1^#§
- Transient global amnesia, No. events ([2]; MAD 50 mg, moderate, serious): 1^#§
- Dysarthria, No. events [2, 5]: 1^#§&
- Feeling drunk, No. events [2, 5]: 1^#§&
- Vitreous floaters, No. events ([2]; MAD 50 mg, serious): 1^§*
- Hemiparesis, No. events ([2]; MAD 50 mg, severe, serious): 1^£§
- Nervous system disorder, No. events ([2]; MAD 50 mg, severe, serious, hospitalization): 1^£§H
- participants reporting treatment-emergent adverse effects ([2]; any dose of BIA 10-2474, 15 participants): 17.9%
- participants with CNS (serious) adverse events ([2]; repeated 50 mg (up to day 5), one with fatal outcome): five of six
- participants with headache ([2]; single 40 mg, 10 and 20 mg/day for 10 days, three participants): 3.6%
- Any AE, n (%) ([2]; single dose 0.25 mg, N = 6): 0
- Any AE, n (%) ([2]; single dose 1.25 mg, N = 6): 0
- Any AE, n (%) ([2]; single dose 2.5 mg, N = 6): 1 (16.7%)
- Any AE, n (%) ([2]; single dose 5 mg, N = 6): 0
- Any AE, n (%) ([2]; single dose 10 mg, N = 6): 1 (16.7%)
- Any AE, n (%) ([2]; single dose 20 mg, N = 6): 0
- Any AE, n (%) ([2]; single dose 40 mg (SAD and FI combined), N = 18): 5 (27.8%)
- Any AE, n (%) ([2]; single dose 100 mg, N = 6): 1 (16.7%)
- tolerability ([2]; up to 100 mg single dose and up to 20 mg once daily for 10 days): well tolerated
